Consider two molecules from patent publication US20120270935A1, “FORMULATIONS” (priority 2009, published 2012).

Test [1] deals with S. epidermidis NCTC 11047. The test can be described thus: MBC assay. Type of test: cell-based, Staphylococcus epidermidis. As to conditions: Mueller-Hinton broth pH 7.0. The source says: (a) staphylococci. The Staphylococcus aureus strain used was ATCC 29213. S. aureus and other staphylococci are common causes of a wide range of skin, skin structure and wound infections; S. aureus is also known to exacerbate eczema. The ATCC 29213 strain is known to be susceptible to beta-lactam antibiotics such as methicillin. The Staphylococcus epidermidis strain used was NCTC 11047. Staph. epidermidis forms part of the resident flora of skin and is an opportunistic pathogen which can cause biofilms to grow for instance on plastic surgical implants such as catheters. Unless otherwise stated, the staphylococci were cultured and maintained on Mueller-Hinton Medium (agar and broth) at pH 7.2; cultures were incubated aerobically at 37° C. for 19-20 hours, at pH 7 (±0.2). (b) C. striatum NCTC 764. Corynebacterium striatum is closely related to organisms (aerobic diphtheroids of the genus Corynebacterium) that cause body odour. It was cultured and maintained on Mueller-Hinton medium (agar and broth). All cultures were incubated aerobically at 37° C. for 72 hours, at pH 7 (±0.2). […]
Example 8 was repeated (except for the supplemented DDA assays), using S. aureus ATCC 29213 as the test organism. […] In the DDA assays, 200 μg is of each compound was loaded onto each disc: the culture medium was Mueller-Hinton agar at pH 7.0, and results were recorded after overnight incubation at 37° C. in air. […]

Test [2] deals with S. pyogenes ATCC 12344. In words: MIC assay. Type of test: cell-based, Streptococcus pyogenes. Conditions: Mueller-Hinton broth pH 7.0.
In test [3] the test system is S. pyogenes ATCC 12344. In words: Disc diffusion assay (DDA). It counts as cell-based, Streptococcus pyogenes. Conditions: 200 μg per disc; Mueller-Hinton agar pH 7.0; 48 hours at 37° C., 5% carbon dioxide. The source says:
(a) staphylococci. The Staphylococcus aureus strain used was ATCC 29213. S. aureus and other staphylococci are common causes of a wide range of skin, skin structure and wound infections; S. aureus is also known to exacerbate eczema. The ATCC 29213 strain is known to be susceptible to beta-lactam antibiotics such as methicillin. The Staphylococcus epidermidis strain used was NCTC 11047. Staph. epidermidis forms part of the resident flora of skin and is an opportunistic pathogen which can cause biofilms to grow for instance on plastic surgical implants such as catheters. Unless otherwise stated, the staphylococci were cultured and maintained on Mueller-Hinton Medium (agar and broth) at pH 7.2; cultures were incubated aerobically at 37° C. for 19-20 hours, at pH 7 (±0.2). (b) C. striatum NCTC 764. Corynebacterium striatum is closely related to organisms (aerobic diphtheroids of the genus Corynebacterium) that cause body odour. It was cultured and maintained on Mueller-Hinton medium (agar and broth). All cultures were incubated aerobically at 37° C. for 72 hours, at pH 7 (±0.2). (c) streptococci. The strains tested were S. mutans ATCC 25175 and S. pyogenes ATCC 12344. […] The diameter of this zone of “inhibition” was measured using a ProtoCOL™ automated zone sizer (Synbiosis, Cambridge, UK). […]

The subject of another test is C. striatum NCTC 764. The test can be described thus: Disc diffusion assay (DDA). Type of test: cell-based, Corynebacterium striatum. Conditions: Corynebacterium striatum, NCTC764; 200 μg per disc; single plates; read-out: DDA zone diameter. The source says: (a) staphylococci. The Staphylococcus aureus strain used was ATCC 29213. S. aureus and other staphylococci are common causes of a wide range of skin, skin structure and wound infections; S. aureus is also known to exacerbate eczema. The ATCC 29213 strain is known to be susceptible to beta-lactam antibiotics such as methicillin. The Staphylococcus epidermidis strain used was NCTC 11047. Staph. epidermidis forms part of the resident flora of skin and is an opportunistic pathogen which can cause biofilms to grow for instance on plastic surgical implants such as catheters. Unless otherwise stated, the staphylococci were cultured and maintained on Mueller-Hinton Medium (agar and broth) at pH 7.2; cultures were incubated aerobically at 37° C. for 19-20 hours, at pH 7 (±0.2). (b) C. striatum NCTC 764. Corynebacterium striatum is closely related to organisms (aerobic diphtheroids of the genus Corynebacterium) that cause body odour. It was cultured and maintained on Mueller-Hinton medium (agar and broth). All cultures were incubated aerobically at 37° C. for 72 hours, at pH 7 (±0.2). (c) streptococci. […]
A sterile paper disc was impregnated with a sample of the test compound in a suitable solvent and 30 minutes allowed for the solvents to evaporate (where possible). […] The diameter of this zone of “inhibition” was measured using a ProtoCOL™ automated zone sizer (Synbiosis, Cambridge, UK). […]
(A growth-free zone around the sample is the usual read-out of agar diffusion tests.)

The structures appear in SMILES notation.

What is called MBC is the lowest tested concentration that kills the bacteria rather than only halting them. For orientation: MIC means the least concentration at which growth counts as inhibited. Low values mean a more susceptible organism, high ones a less susceptible organism. Molecule `CC(=O)c1c([O-])c(C)c([O-])c2c1OC1=CC(=O)C(C(C)=O)C(=O)C12C.[Cu+2]` (stereo not shown) [Copper usnate, copper (II) usnate] registered an MBC in test [1] of 62.5 µg/mL. The molecule further showed an MIC against S. pyogenes ATCC 12344 [2] of 0.98 µg/mL. Further, the DDA zone diameter in the test on S. pyogenes ATCC 12344 [3] is on record as 31.3 ± 0.6 mm.

Regarding `CC(=O)c1c(O)c(C)c(O)c2c1OC1=CC(=O)C(C(C)=O)C(=O)C12C` (stereo not shown) [Usnic acid, 2,6-diacetyl-7,9-dihydroxy-8,9b-dimethyl-1,3(2H,9bh)-dibenzofurandione], in the test with C. striatum NCTC 764, the zone of inhibition at 200 µg/disc was 20 mm.
